The source of these data is patent US20130090327A1, “Inhibitors of Protein Tyrosine Kinase Activity” (METHYLGENE INC., priority 2011, published 2013).

In one assay the target is T1, VEGFR2 (KDR) (Homo sapiens, UniProt P35968).
T1 construct: made in house; host or cells: Sf9 cells (Spodoptera frugiperda), baculovirus (Bac-to-Bac)
Description: In Vitro Receptor Tyrosine Kinase Assay (VEGF Receptor KDR). The class given is biochemical. The settings on record: recombinant GST-VEGFR2 806-1356, DELFIA assay, ATP 0.6 uM, enzyme 5 nM; read-out: VEGFR_IC50_UM. An excerpt:
In Vitro Receptor Tyrosine Kinase Assay (VEGF Receptor KDR)
This test measures the ability of compounds to inhibit the enzymatic activity of recombinant human VEGF receptor enzymatic activity.
A 1.6-kb cDNA corresponding to the catalytic domain of VEGFR2 (KDR) (Genbank accession number AF035121 amino acid 806 to 1356) is cloned into the Pst I site of the pDEST20 Gateway vector (Invitrogen) for the production of a GST-tagged version of that enzyme. This construct is used to generate recombinant baculovirus using the Bac-to-Bac™ system according to the manufacturer's instructions (Invitrogen).
The GST-VEGFR2806-1356 protein is expressed in Sf9 cells (Spodoptera frugiperda) upon infection with recombinant baculovirus construct. Briefly, Sf9 cells grown in suspension and maintained in serum-free medium (Sf900 II supplemented with gentamycin) at a cell density of about 2×10^6 cells/ml are infected with the above-mentioned viruses at a multiplicity of infection (MOI) of 0.1 during 72 hours at 27° C. with agitation at 120 rpm on a rotary shaker. Infected cells are harvested by centrifugation at 398 g for 15 min. Cell pellets are frozen at […] until purification is performed.
All steps described in cell extraction and purification are performed at 4° C. Frozen Sf9 cell pellets infected with the GST-VEGFR2806-1356 recombinant baculovirus are thawed and gently resuspended in Buffer A (PBS pH 7.3 supplemented with 1 μg/ml pepstatin, 2 μg/ml Aprotinin and leupeptin, 50 μg/ml PMSF, 50 μg/ml TLCK and 10 μM E64 and 0.5 mM DTT) using 3 ml of buffer per gram of cells. Suspension is Dounce homogenized and 1% Triton X-100 is added to the homogenate after which it is centrifuged at 22500 g, 30 min., 4° C. The supernatant (cell extract) is used as starting material for purification of GST-VEGFR2806-1356.
The supernatant is loaded onto a GST-agarose column (Sigma) equilibrated with PBS pH 7.3. Following a four column volume (CV) wash with PBS pH 7.3+1% Triton X-100 and 4 CV wash with buffer B (50 mM Tris pH 8.0, 20% glycerol and 100 mM NaCl), bound proteins are step eluted with 5 CV of buffer B supplemented with 5 mM DTT and 15 mM glutathion. GST-VEGFR2806-1356 enriched fractions from this chromatography step are pooled based on U.V. trace i.e. fractions with high O.D.280. Final GST-VEGFR2806-1356 protein preparations concentrations are about 0.7 mg/ml with purity approximating 70%. Purified GST-VEGFR2806-1356 protein stocks are aliquoted and frozen at −80° C. prior to use in enzymatic assay.
Inhibition of VEGFR/KDR is measured in a DELFIA™ assay (Perkin Elmer). The substrate poly(Glu4,Tyr) is immobilized onto black high-binding polystyrene 96-well plates. The coated plates are washed and stored at 4° C. During the assay, the enzyme is pre-incubated with inhibitor and Mg-ATP on ice in polypropylene 96-well plates for 4 minutes, and then transferred to the coated plates. The subsequent kinase reaction takes place at 30° C. for 10-minutes. ATP concentrations in the assay are 0.6 uM for VEGFR/KDR (2× the Km). Enzyme concentration is 5 nM. After incubation, the kinase reactions are quenched with EDTA and the plates are washed. Phosphorylated product is detected by incubation with Europium-labeled anti-phosphotyrosine MoAb. After washing the plates, bound MoAb is detected by time-resolved fluorescence in a Gemini SpectraMax reader (Molecular Devices). Compounds are evaluated over a range of concentrations, and IC50 values (concentration of compounds giving 50% inhibition of enzymatic activity) are determined.

Assay [1] concerns choroidal neovascularization (CNV). Kind of assay: In Vivo Choroidal Neovascularization (CNV) Model. The settings on record: for CNV area, average: group average, Day 10, rat; for CNV area, individual animal: injection on Day 3, measured Day 10, rat; for CNV area % of control / inhibition (CNV area): versus vehicle group, rat. Set-up: species or system Brown-Norway rats. An excerpt: In Vivo Choroidal Neovascularization (CNV) Model
This test measures the capacity of compounds to inhibit CNV progression. CNV is the main cause of severe vision loss in patients suffering from age-related macular degeneration (AMD).
Male Brown-Norway rats (Charles River Japan Co., Ltd.) were used in these studies.
Rats were anesthetized by intraperitoneal injection of pentobarbital, and the right pupil was dilated with 0.5% tropicamide and 0.5% phenylephrine hydrochloride. The right eye received 6 laser burns between retinal vessels using a slit lamp delivery system of Green laser Photocoagulator (Nidex Inc., Japan), and microscope slide glass with 10 mg/mL hyaluronic acid (SIGMA) used as a contact lens. The laser power was 200 mW for 0.1 second and spot diameter was 100 μm. At the time of laser burn, bubble production was observed; which is an indication of rupture of Bruch's membrane which is important for CNV generation.
After animals were anesthetized, and the right pupil dilated (as mentioned above), the right eye of the animal received the compound or vehicle by an injection (3 μL/eye) at doses of 0.3 to 30 nmol/eye on Day 3. The compounds were dissolved or suspended in CBS, PBS, or other adequate vehicles before injection.
On Day 10, the animals were anesthetized with ether, and high molecular weight fluorescein isothiocyanate (FITC)-dextran (SIGMA, 2×106 MW) was injected via a tail vein (20 mg/rat). About 30 min after FITC-dextran injection, animals were euthanized by ether or carbon dioxide, and the eyes were removed and fixed with 10% formaline neutral buffer solution. After over 1 hour of fixation, RPE-choroid-sclera flat mounts were obtained by removing comea, lens and retina from the eyeballs. The flat mounts were mounted in 50% glycerol on a microscope slide, and the portion burned by laser was photographed using a fluorescence microscope (Nikon Corporation, excitation filter: 465-495 nm, absorption filter: 515-555 nm). The CNV area was obtained by measurement of hyper-fluorescence area observed on the photograph using Scion image.
The average CNV area of 6 burns was used as an individual value of CNV area, and the average CNV area of compound treated group was compared with that of the vehicle-treated group.

Several values for one entry are separate records, joined by “and”; a condition that tells them apart may be missing. Equal values may be shown once.

T1 sequence (P35968 806-1356): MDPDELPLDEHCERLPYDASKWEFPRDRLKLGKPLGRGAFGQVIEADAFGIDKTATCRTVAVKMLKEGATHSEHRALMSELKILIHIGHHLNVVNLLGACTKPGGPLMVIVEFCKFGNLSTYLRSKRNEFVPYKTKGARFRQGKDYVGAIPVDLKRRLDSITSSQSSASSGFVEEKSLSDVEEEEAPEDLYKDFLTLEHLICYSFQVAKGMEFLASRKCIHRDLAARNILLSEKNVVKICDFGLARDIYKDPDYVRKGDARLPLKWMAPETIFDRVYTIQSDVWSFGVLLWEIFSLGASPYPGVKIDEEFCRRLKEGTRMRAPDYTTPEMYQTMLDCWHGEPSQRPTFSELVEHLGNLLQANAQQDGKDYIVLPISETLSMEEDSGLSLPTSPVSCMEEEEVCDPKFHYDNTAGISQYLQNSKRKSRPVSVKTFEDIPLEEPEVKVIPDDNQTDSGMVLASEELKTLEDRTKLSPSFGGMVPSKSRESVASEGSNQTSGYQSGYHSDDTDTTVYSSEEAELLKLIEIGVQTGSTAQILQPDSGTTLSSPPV

With `COCCN(Cc1ccc(-c2cc3nccc(Oc4ccc(Nc5nc6cc(Cl)ccc6[nH]5)cc4F)c3s2)nc1)C(C)=O` [Compound 64], the IC50 at VEGFR2 (KDR) was found to be 31 nM. In addition, the “CNV area, average” value in assay [1] (0.3 nmol/eye) is reported as 0.085 mm^2; in assay [1] (1 nmol/eye) it was 0.077 mm^2; in assay [1] (3 nmol/eye), 0.065 mm^2; in assay [1] (10 nmol/eye), 0.045 mm^2; in assay [1] (30 nmol/eye), 0.036 mm^2. Besides, the “CNV area, individual animal” value is 0.091 mm^2 and 0.094 mm^2 and 0.045 mm^2 and 0.050 mm^2 and 0.116 mm^2 and 0.147 mm^2 and 0.069 mm^2 and 0.084 mm^2 and 0.072 mm^2 in assay [1] (0.3 nmol/eye); 0.045 mm^2 and 0.092 mm^2 and 0.101 mm^2 (2×) and 0.088 mm^2 and 0.061 mm^2 and 0.109 mm^2 and 0.056 mm^2 and 0.040 mm^2 in assay [1] (1 nmol/eye); 0.070 mm^2 (2×) and 0.019 mm^2 and 0.081 mm^2 and 0.084 mm^2 and 0.062 mm^2 and 0.056 mm^2 and 0.086 mm^2 and 0.054 mm^2 in assay [1] (3 nmol/eye); 0.030 mm^2 and 0.003 mm^2 and 0.051 mm^2 and 0.058 mm^2 and 0.064 mm^2 and 0.035 mm^2 and 0.097 mm^2 and 0.039 mm^2 and 0.032 mm^2 in assay [1] (10 nmol/eye); 0.047 mm^2 and 0.031 mm^2 and 0.036 mm^2 and 0.048 mm^2 and 0.037 mm^2 and 0.027 mm^2 (2×) and 0.051 mm^2 and 0.019 mm^2 in assay [1] (30 nmol/eye). Moreover, the “CNV area % of control” value in assay [1] (0.3 nmol/eye) was found to be 105.6%; in assay [1] (1 nmol/eye), 95.3%; in assay [1] (3 nmol/eye) it was 80.0%; in assay [1] (10 nmol/eye), 56.2%; in assay [1] (30 nmol/eye), 44.4%. Also, the “inhibition (CNV area)” value was −5.6 in assay [1] (0.3 nmol/eye); 4.7 in assay [1] (1 nmol/eye); 20.0 in assay [1] (3 nmol/eye); 43.8 in assay [1] (10 nmol/eye); 55.6 in assay [1] (30 nmol/eye).
Regarding `O=C(Nc1ccc(Oc2ccnc3cc(-c4ccc(CN5CCCC5=O)cn4)sc23)c(F)c1)NC1COC1` [Compound 93, 1-(3-Fluoro-4-(2-(5-((2-oxopyrrolidin-1-yl)methyl)pyridin-2-yl)thieno[3,2-b]pyridin-7-yloxy)phenyl)-3-(oxetan-3-yl)urea], the IC50 on VEGFR2 (KDR) was 9 nM.
The same measure, in the same setting: next, `COCCN(Cc1ccc(-c2cc3nccc(Oc4ccc(NC(=O)NC5COC5)cc4F)c3s2)nc1)C(=O)OC(C)(C)C` [Compound 104]: 197 nM.
Turning to `O=C(Nc1ccc(Oc2ccnc3cc(-c4ccc(CN5CCOC5=O)cn4)sc23)c(F)c1)NC1COC1` [Compound 105], the IC50 at VEGFR2 (KDR) was found to be 25 nM.
On to `COCCN(Cc1ccc(-c2cc3nccc(Oc4ccc(NC(=O)NC5COC5)cc4F)c3s2)nc1)C(C)=O` [Compound 106], for which the IC50 at VEGFR2 (KDR) turned out to be 12 nM.
Still for that read-out and setting: next, `CN(C)[C@H]1CCN(C(=O)c2cc3nccc(Oc4ccc(NC(=O)NC5COC5)cc4F)c3s2)C1` [Compound 107]: 56 nM; `COCCN(Cc1ccc(-c2cc3nccc(Oc4ccc(NC(=O)NC5COC5)c(F)c4F)c3s2)nc1)C(=O)OC(C)(C)C` [Compound 108]: 31 nM; `COCCN(Cc1ccc(-c2cc3nccc(Oc4ccc(NC(=O)NC5COC5)c(F)c4F)c3s2)nc1)C(C)=O` [Compound 109]: 11 nM.
On to `CC(C)(C)OC(=O)N1CC(NC(=O)Nc2ccc(Oc3ccnc4cc(-c5ccc(CN6CCCC6=O)cn5)sc34)c(F)c2)C1` [Compound 110], for which the IC50 at VEGFR2 (KDR) is 17 nM.
With `CC(C)(C)OC(=O)N1CC(NC(=O)Nc2ccc(Oc3ccnc4cc(-c5ccc(CN6CCOC6=O)cn5)sc34)c(F)c2)C1` [Compound 111], the IC50 on VEGFR2 (KDR) was found to be 59 nM.
As for `CC(=O)N1CC(NC(=O)Nc2ccc(Oc3ccnc4cc(-c5ccc(CN6CCCC6=O)cn5)sc34)c(F)c2)C1` [Compound 112, 1-(1-Acetylazetidin-3-yl)-3-(3-fluoro-4-(2-(5-((2-oxopyrrolidin-1-yl)methyl)pyridin-2-yl)thieno[3,2-b]pyridin-7-yloxy)phenyl)urea], on VEGFR2 (KDR), the IC50 was found to be 37 nM.
As for `CC(=O)N1CC(NC(=O)Nc2ccc(Oc3ccnc4cc(-c5ccc(CN6CCOC6=O)cn5)sc34)c(F)c2)C1` [Compound 113, 1-(1-Acetylazetidin-3-yl)-3-(3-fluoro-4-(2-(5-((2-oxooxazolidin-3-yl)methyl)pyridin-2-yl)thieno[3,2-b]pyridin-7-yloxy)phenyl)urea], the IC50 at VEGFR2 (KDR) turned out to be 95 nM.
